# Measurements: publication PMC5095062, “The novel choline kinase inhibitor ICL-CCIC-0019 reprograms cellular metabolism and inhibits cancer cell growth” (Oncotarget, 2016)
# What was measured:
# Assay in all cases: Kinase selectivity screen
# Type in all cases: biochemical
# Aurora B = Aurora B (Homo sapiens, UniProt Q96GD4)
# Protocol: (§1) The substantially less demanding synthesis of ICL-CCIC-0019 compared with MN58B bears additional advantages. […] This consequently diminished intracellular PCho concentration, and importantly, the incorporation of [^3H]-choline into lipids (Figure 1D). […] To assess kinase specificity, ICL-CCIC-0019 was tested against a panel of 131 human kinases (Figure 1E and Supplementary Table S1). […] Inhibition greater than 20% was attained for insulin-like growth factor 1 (IGF-1R, 35 ± 7% inhibition), mitogen-activated protein kinase-activated protein kinase 3 (MAPKAP-K3, 33 ± 6%), extracellular signal regulated kinase 8 (ERK8, 31 ± 4%), ribosomal S6 kinase 1 (RSK1, 22 ± 6%), and v-erb-a erythroblastic leukemia viral oncogene homolog 4 (HER4, 21 ± 7%).
# BRSK2 = BRSK2 (Homo sapiens, UniProt Q8IWQ3); conditions: BRSK2, 10 μM
# Protocol: as §1
# CAMKKb = CAMKKb (Homo sapiens, UniProt Q96RR4)
# Protocol: as §1
# CDK9-Cyclin T1 = CDK9-Cyclin T1 (Homo sapiens, UniProt P50750); conditions: CDK9-Cyclin T1, 10 μM
# Protocol: as §1
# CHK2 = CHK2 (Homo sapiens, UniProt O96017); conditions: CHK2, 10 μM
# Protocol: as §1
# CK1γ2 = CK1γ2 (Homo sapiens, UniProt P78368); conditions: CK1γ2, 10 μM
# Protocol: as §1
# DYRK2 = DYRK2 (Homo sapiens, UniProt Q92630); conditions: DYRK2, 10 μM
# Protocol: as §1
# DYRK3 = DYRK3 (Homo sapiens, UniProt O43781); conditions: DYRK3, 10 μM
# Protocol: as §1
# EPH-A2 = EPH-A2 (Homo sapiens, UniProt P29317); conditions: EPH-A2, 10 μM
# Protocol: as §1
# ERK2 = ERK2 (Homo sapiens, UniProt P28482); conditions: ERK2, 10 μM
# Protocol: as §1
# GCK = GCK (Homo sapiens, UniProt Q12851)
# Protocol: as §1
# HIPK1 = HIPK1 (Homo sapiens, UniProt Q86Z02); conditions: HIPK1, 10 μM
# Protocol: as §1
# HIPK2 = HIPK2 (Homo sapiens, UniProt Q9H2X6); conditions: HIPK2, 10 μM
# Protocol: as §1
# IGF-1R = IGF-1R (Homo sapiens, UniProt P08069)
# Protocol: as §1
# IRR = IRR (Homo sapiens, UniProt P14616)
# Protocol: as §1
# MAPKAP-K3 = MAPKAP-K3 (Homo sapiens, UniProt Q16644); conditions: MAPKAP-K3, 10 μM
# Protocol: as §1
# MARK1 = MARK1 (Homo sapiens, UniProt Q9P0L2); conditions: MARK1, 10 μM
# Protocol: as §1
# MARK3 = MARK3 (Homo sapiens, UniProt P27448); conditions: MARK3, 10 μM
# Protocol: as §1
# MARK4 = MARK4 (Homo sapiens, UniProt Q96L34); conditions: MARK4, 10 μM
# Protocol: as §1
# MKK1 = MKK1 (Homo sapiens, UniProt Q02750); conditions: MKK1, 10 μM
# Protocol: as §1
# MNK1 = MNK1 (Homo sapiens, UniProt Q9BUB5); conditions: MNK1, 10 μM
# Protocol: as §1
# MST2 = MST2 (Homo sapiens, UniProt Q13188); conditions: MST2, 10 μM
# Protocol: as §1
# NUAK1 = NUAK1 (Homo sapiens, UniProt O60285); conditions: NUAK1, 10 μM
# Protocol: as §1
# OSR1 = OSR1 (Homo sapiens, UniProt O95747); conditions: OSR1, 10 μM
# Protocol: as §1
# PAK5 = PAK5 (Homo sapiens, UniProt Q9P286); conditions: PAK5, 10 μM
# Protocol: as §1
# PDK1 = PDK1 (Homo sapiens, UniProt O15530); conditions: PDK1, 10 μM
# Protocol: as §1
# PIM2 = PIM2 (Homo sapiens, UniProt Q9P1W9); conditions: PIM2, 10 μM
# Protocol: as §1
# PKCγ = PKCγ (Homo sapiens, UniProt P05129)
# Protocol: as §1
# RIPK2 = RIPK2 (Homo sapiens, UniProt O43353); conditions: RIPK2, 10 μM
# Protocol: as §1
# S6K1 = S6K1 (Homo sapiens, UniProt P23443); conditions: S6K1, 10 μM
# Protocol: as §1
# SGK1 = SGK1 (Homo sapiens, UniProt O00141); conditions: SGK1, 10 μM
# Protocol: as §1
# SIK2 = SIK2 (Homo sapiens, UniProt Q9H0K1); conditions: SIK2, 10 μM
# Protocol: as §1
# SmMLCK = SmMLCK (Homo sapiens, UniProt Q15746)
# Protocol: as §1
# VEG-FR = VEG-FR (Homo sapiens, UniProt P17948)
# Protocol: as §1
# p38b MAPK = p38b MAPK (Homo sapiens, UniProt Q15759)
# Protocol: as §1
# Sequence of IGF-1R (P08069 31-1367): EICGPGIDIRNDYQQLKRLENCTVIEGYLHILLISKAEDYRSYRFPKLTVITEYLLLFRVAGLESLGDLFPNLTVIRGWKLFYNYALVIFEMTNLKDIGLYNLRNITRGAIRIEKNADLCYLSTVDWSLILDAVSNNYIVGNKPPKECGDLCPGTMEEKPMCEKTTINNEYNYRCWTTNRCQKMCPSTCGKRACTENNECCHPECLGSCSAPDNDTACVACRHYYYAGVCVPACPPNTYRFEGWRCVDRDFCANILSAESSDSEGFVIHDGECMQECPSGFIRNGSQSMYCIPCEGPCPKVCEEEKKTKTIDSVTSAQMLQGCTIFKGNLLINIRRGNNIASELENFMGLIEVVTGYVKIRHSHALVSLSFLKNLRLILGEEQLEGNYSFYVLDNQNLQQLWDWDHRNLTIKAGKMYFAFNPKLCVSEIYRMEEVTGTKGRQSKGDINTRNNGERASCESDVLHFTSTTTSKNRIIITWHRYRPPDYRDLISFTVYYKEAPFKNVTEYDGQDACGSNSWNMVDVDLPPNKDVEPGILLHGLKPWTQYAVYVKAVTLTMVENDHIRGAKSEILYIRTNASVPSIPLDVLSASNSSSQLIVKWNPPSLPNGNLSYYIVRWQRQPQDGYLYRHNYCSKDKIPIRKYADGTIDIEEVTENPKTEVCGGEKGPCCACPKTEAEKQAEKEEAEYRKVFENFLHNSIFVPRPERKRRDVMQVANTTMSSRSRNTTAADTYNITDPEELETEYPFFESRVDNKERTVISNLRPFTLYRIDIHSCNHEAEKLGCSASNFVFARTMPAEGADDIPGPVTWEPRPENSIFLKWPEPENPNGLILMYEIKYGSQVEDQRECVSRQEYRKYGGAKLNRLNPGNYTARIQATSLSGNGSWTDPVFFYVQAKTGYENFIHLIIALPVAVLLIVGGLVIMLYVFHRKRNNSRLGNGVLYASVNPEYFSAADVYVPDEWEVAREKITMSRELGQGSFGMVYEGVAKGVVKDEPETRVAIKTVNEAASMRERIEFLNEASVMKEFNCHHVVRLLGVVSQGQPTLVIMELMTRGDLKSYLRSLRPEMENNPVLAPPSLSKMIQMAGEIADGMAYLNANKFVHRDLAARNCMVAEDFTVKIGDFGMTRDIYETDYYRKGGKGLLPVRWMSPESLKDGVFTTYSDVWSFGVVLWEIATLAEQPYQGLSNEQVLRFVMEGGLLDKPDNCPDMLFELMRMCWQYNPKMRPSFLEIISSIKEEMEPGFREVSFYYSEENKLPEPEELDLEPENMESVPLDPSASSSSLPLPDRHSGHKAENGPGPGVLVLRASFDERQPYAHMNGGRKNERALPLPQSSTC
# Sequence of MAPKAP-K3 (Q16644 whole entry): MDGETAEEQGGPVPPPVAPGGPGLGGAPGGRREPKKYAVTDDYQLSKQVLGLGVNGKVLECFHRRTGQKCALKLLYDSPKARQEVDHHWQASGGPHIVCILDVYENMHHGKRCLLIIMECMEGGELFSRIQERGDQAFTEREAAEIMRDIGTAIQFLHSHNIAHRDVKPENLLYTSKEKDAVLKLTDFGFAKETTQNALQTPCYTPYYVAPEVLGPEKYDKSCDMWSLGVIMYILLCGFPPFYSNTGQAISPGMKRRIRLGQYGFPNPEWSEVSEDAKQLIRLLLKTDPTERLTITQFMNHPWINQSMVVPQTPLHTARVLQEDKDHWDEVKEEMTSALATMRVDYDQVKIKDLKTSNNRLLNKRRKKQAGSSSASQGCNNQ
# Sequence of VEG-FR (P17948 27-1338): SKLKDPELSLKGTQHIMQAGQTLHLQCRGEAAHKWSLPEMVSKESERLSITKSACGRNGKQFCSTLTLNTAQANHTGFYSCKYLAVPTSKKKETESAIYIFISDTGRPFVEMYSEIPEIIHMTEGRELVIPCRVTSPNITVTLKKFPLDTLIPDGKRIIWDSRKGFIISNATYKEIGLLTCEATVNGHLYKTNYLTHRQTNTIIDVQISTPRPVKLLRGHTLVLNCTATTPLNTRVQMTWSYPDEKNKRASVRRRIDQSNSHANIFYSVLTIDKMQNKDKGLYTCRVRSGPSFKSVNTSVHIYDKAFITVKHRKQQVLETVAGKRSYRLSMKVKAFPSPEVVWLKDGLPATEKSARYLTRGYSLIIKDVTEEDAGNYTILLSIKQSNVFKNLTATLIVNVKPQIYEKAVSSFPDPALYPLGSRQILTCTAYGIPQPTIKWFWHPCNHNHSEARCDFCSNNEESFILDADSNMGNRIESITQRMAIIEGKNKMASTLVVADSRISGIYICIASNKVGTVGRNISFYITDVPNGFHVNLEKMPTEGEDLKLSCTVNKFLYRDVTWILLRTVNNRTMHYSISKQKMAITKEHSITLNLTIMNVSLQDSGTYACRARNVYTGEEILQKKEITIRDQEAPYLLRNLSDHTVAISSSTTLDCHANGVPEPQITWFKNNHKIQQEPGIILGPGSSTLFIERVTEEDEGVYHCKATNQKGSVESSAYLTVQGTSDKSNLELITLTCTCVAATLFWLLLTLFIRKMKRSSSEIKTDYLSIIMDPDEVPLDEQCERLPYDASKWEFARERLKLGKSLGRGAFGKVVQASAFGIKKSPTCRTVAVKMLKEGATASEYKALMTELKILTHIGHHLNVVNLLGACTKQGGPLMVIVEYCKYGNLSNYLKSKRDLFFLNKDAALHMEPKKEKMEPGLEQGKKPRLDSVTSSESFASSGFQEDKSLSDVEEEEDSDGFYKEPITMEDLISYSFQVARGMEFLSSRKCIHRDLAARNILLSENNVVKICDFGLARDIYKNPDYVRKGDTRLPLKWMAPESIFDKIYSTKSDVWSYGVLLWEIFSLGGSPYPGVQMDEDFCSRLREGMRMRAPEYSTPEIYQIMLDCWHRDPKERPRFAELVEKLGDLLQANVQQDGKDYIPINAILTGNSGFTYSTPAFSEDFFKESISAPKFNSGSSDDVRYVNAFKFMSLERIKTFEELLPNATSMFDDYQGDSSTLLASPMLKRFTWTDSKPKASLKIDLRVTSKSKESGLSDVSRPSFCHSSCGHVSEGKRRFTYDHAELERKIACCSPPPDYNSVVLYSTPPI
# Sequence of PIM2 (Q9P1W9 whole entry): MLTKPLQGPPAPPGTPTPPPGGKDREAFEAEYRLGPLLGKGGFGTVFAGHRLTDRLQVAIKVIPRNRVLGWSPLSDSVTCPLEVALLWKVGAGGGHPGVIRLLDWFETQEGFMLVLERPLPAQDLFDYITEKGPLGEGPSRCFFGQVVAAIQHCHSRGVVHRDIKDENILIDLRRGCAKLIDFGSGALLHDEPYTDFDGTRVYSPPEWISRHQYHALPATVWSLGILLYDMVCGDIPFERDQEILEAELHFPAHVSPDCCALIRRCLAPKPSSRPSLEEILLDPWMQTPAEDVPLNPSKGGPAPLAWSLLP
# Sequence of CDK9-Cyclin T1 (P50750 whole entry): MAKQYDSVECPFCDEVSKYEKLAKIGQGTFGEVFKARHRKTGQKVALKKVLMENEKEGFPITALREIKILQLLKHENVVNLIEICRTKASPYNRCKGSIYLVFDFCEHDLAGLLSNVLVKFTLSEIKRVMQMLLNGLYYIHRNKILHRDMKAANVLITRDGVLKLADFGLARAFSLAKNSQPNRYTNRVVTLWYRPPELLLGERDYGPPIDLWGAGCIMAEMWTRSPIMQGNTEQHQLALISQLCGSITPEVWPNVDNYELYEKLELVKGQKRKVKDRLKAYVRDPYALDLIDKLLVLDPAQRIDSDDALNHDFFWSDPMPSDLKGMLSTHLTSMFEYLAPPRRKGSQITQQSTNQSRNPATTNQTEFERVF
# Sequence of CDK9-Cyclin T1 (O60563 whole entry partner): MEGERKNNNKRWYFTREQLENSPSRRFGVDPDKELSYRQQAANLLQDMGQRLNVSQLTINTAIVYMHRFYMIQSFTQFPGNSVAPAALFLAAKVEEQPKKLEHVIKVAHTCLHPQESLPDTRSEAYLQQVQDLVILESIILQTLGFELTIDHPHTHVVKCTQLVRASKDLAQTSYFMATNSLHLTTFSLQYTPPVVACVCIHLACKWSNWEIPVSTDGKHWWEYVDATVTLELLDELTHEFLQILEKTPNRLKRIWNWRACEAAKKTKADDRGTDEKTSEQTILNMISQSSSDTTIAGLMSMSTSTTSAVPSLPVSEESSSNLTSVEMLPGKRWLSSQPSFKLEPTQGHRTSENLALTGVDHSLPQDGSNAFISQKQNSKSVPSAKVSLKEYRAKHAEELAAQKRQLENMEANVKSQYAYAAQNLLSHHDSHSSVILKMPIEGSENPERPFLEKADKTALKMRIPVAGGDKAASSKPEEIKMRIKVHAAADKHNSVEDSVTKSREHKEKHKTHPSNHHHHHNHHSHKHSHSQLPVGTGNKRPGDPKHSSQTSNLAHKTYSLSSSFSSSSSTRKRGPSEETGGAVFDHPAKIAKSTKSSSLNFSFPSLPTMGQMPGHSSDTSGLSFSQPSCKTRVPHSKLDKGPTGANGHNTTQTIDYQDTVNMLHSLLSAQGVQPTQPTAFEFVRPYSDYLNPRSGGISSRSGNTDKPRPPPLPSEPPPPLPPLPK
# Sequence of S6K1 (P23443 whole entry): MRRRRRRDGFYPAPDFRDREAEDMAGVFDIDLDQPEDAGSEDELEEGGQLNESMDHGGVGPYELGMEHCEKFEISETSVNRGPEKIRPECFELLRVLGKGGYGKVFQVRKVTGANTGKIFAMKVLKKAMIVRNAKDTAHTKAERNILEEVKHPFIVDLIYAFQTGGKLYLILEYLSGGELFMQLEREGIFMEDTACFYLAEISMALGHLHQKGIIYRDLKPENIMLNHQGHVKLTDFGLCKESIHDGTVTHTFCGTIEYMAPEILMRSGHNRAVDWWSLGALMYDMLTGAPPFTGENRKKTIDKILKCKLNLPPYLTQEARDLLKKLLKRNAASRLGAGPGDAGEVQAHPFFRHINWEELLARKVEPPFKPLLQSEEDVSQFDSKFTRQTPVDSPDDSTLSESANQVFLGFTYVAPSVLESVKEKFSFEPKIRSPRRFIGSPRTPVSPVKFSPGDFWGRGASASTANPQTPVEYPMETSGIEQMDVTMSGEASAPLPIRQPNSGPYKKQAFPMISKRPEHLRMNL
smiles,measurement,setting,value
CN(C)c1cc[n+](CCCCCCCCCCCC[n+]2ccc(N(C)C)cc2)cc1 [ICL-CCIC-0019],remaining activity at 10 µM,Aurora B,102%
same,remaining activity at 10 µM,BRSK2,94%
same,remaining activity at 10 µM,CAMKKb,91%
same,remaining activity at 10 µM,CDK9-Cyclin T1,95%
same,remaining activity at 10 µM,CHK2,90%
same,remaining activity at 10 µM,CK1γ2,92%
same,remaining activity at 10 µM,DYRK2,96%
same,remaining activity at 10 µM,DYRK3,106%
same,remaining activity at 10 µM,EPH-A2,93%
same,remaining activity at 10 µM,ERK2,103%
same,remaining activity at 10 µM,GCK,89%
same,remaining activity at 10 µM,HIPK1,106%
same,remaining activity at 10 µM,HIPK2,104%
same,inhibition at 10 µM,IGF-1R,35 ± 7%
same,remaining activity at 10 µM,IGF-1R,65%
same,remaining activity at 10 µM,IRR,92%
same,inhibition at 10 µM,MAPKAP-K3,33 ± 6%
same,remaining activity at 10 µM,MAPKAP-K3,67%
same,remaining activity at 10 µM,MARK1,103%
same,remaining activity at 10 µM,MARK3,106%
same,remaining activity at 10 µM,MARK4,95%
same,remaining activity at 10 µM,MKK1,82%
same,remaining activity at 10 µM,MNK1,101%
same,remaining activity at 10 µM,MST2,89%
same,remaining activity at 10 µM,NUAK1,103%
same,remaining activity at 10 µM,OSR1,99%
same,remaining activity at 10 µM,PAK5,90%
same,remaining activity at 10 µM,PDK1,133%
same,remaining activity at 10 µM,PIM2,103%
same,remaining activity at 10 µM,PKCγ,93%
same,remaining activity at 10 µM,RIPK2,102%
same,remaining activity at 10 µM,S6K1,88%
same,remaining activity at 10 µM,SGK1,94%
same,remaining activity at 10 µM,SIK2,109%
same,remaining activity at 10 µM,SmMLCK,104%
same,remaining activity at 10 µM,VEG-FR,80%
same,remaining activity at 10 µM,p38b MAPK,107%
